Patent US20040116336A1, “Peptide derivatives” (priority 2002, published 2004)
Starred links: 1 amine or outer side, 2 acyl side, 3 side chain; linkers in the order of their positions; H or OH if unused. Non-standard residues stand in square brackets, D forms with d. Residues, ends and D or L forms follow the SMILES beside them. No end group written: not given here. *: point of attachment. Phe(4-Cl) = N[C@@H](Cc1ccc(Cl)cc1)C(=O)O; Adipoyl = O=C(CCCCC(=O)[*:2])[*:1]; Lys(Me2) = CN(C)CCCC[C@H](N)C(=O)O; Cha = N[C@@H](CC1CCCCC1)C(=O)O; pGlu = O=C1CC[C@@H](C(=O)O)N1; Dap = NC[C@H](N)C(=O)O; Hexanoyl = CCCCCC(=O)*

Assays:
APJ [1] = target: T1, APJ (Homo sapiens, UniProt P35414); experiment: Inhibitory activity on forskolin-stimulated cAMP production in CHO-A10 clone 6 cells; assay type: cell-based; conditions: read-out: EC50
T1 construct: expressed in transfected cells; host or cells: CHO (CHO-A10; clone 6 for the cAMP assay)
T1 sequence (P35414 1-380): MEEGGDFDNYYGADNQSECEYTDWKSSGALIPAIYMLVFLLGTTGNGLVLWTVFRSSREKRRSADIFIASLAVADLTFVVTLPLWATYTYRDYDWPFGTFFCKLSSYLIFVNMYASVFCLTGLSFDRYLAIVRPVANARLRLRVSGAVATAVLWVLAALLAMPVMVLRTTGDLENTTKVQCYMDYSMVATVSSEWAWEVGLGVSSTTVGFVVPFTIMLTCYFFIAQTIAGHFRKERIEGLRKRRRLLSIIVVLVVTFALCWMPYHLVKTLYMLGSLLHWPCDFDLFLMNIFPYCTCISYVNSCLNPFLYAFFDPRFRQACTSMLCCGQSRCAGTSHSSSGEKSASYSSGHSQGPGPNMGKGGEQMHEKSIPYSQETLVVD
Method: Measurement of an Inhibitory Activity on Forskolin-Stimulated cAMP Production
Hanks' balanced salt solution (HBSS) containing 0.2 mM 3-isobutyl-1-methylxanthine (IBMX) and 0.05% bovine serum albumin was prepared as an assay buffer, and each well was washed twice with 500 μl assay buffer and pre-incubated at 37° C. for 30 minutes. Further, each well was washed once with 500 μl assay buffer, and a sample dissolved in the assay buffer containing 1 μM forskolin was added at a volume of 500 μl/well and incubated at 37° C. for 30 minutes. Wells incubated with the assay buffer not containing forskolin were prepared in the same manner in order to determine the basal level of cellular cAMP production, while wells incubated with the assay buffer containing forskolin were also prepared in order to determine the maximum level of cAMP production stimulated with forskolin. After incubation was finished, each well was washed once with 500 μl assay buffer, and 500 μl lysis buffer 1B attached to a cAMP EIA system from Amersham was added to each well, to extract cAMP. According to the protocol of the kit, 100 μl of each extract was used to determine the level of cAMP. For the inhibitory activity of the sample on cAMP production, the difference (inhibited cAMP production) between the maximum level and the level of cAMP in the sample-containing wells was determined, and the inhibitory activity was expressed as percentage relative to the increased level of cAMP production stimulated with forskolin (that is, the difference between the maximum level and basal level), and from this dose-reaction curve, the EC50 was determined.

APJ [2] = target: T1, APJ; experiment: Receptor binding assay-2 (compound in Reference Example 2 used); conditions: compound in Reference Example 2 used as ligand; read-out: IC50
Method: This product was mixed with an equal volume of an assay buffer (50 mM Tris-HCl/pH 7.5, 5 mM EDTA, 0.5 mM PMSF, 20 μg/ml leupeptin, 0.1 μg/ml pepstatin A, 4 μg/ml E-64 (Peptide Research Laboratory, Co.), 0.1% bovine serum albumin) and stored at −30° C. before use.
CHO-A10 cells were cultured, recovered with PBS containing 5 mM EDTA from a culture vessel, and suspended in the above-mentioned assay buffer not containing bovine serum albumin. The cells were homogenized 3 times at 12,000 rpm for 15 seconds by a Polytron homogenizer (manufactured by Kinematica Inc.) and then centrifuged (1000×g, 4° C., 10 minutes), and the supernatant was recovered. The precipitates were subjected again to the same procedure as above, and the respective supernatants were combined and centrifuged at 100,000×g, 4° C. for 1 hour, to recover precipitates (membrane fraction). The membrane fraction was suspended again in a small amount of the buffer, homogenized with a Teflon homogenizer and stored at −80° C. before use.
Binding assay was carried out under the following conditions. […] Measurement of non-specific binding was carried out using a well containing 1 μM unlabeled compound in place of the test sample. After the incubation was finished, a cell harvester (Packard) adapted to 96 wells and a filter unit (GF/C, Packard) were used for separation thereby capturing the membrane fraction on the filter. After the filter was sufficiently dried, Microcinti 0 (Packard) was added thereto, and using Top Count (Packard), the amount of the labeled material captured together with the membrane fraction on the filter was measured.

| Compound | EC50 (APJ [1]) [nM] | IC50 (APJ [2]) [nM] |
| --- | --- | --- |
| CSCC[C@H](NC(=O)[C@@H]1CCCN1C(=O)CNC(=O)[C@H](CCCCN)NC(=O)[C@H](Cc1c[nH]cn1)NC(=O)[C@H](CO)NC(=O)[C@H](CC(C)C)NC(=O)[C@H](CCCNC(=N)N)NC(=O)[C@@H]1CCCN1C(=O)[C@H](CCCNC(=N)N)NC(=O)[C@H](CCCNC(=N)N)NC(=O)[C@H](CCCNC(=N)N)NC(=O)[C@@H](N)CCCNC(=N)N)C(=O)N1CCC[C@H]1C(=O)N[C@@H](Cc1ccccc1)C(=O)O [Compound in Ex. 22] | 0.32 | 0.12 |
| CSCC[C@H](NC(=O)[C@@H]1CCCN1C(=O)CNC(=O)[C@H](CCCCN)NC(=O)[C@H](Cc1c[nH]cn1)NC(=O)[C@H](CO)NC(=O)[C@H](CC(C)C)NC(=O)[C@H](CCCNC(=N)N)NC(=O)[C@@H]1CCCN1C(=O)[C@H](CCCNC(=N)N)NC(=O)[C@H](Cc1ccccc1)NC(=O)[C@H](CCCNC(=N)N)NC(=O)[C@@H](N)CCCNC(=N)N)C(=O)N1CCC[C@H]1C(=O)N[C@@H](Cc1ccccc1)C(=O)O [Compound in Ex. 33] | 1.1 | 0.37 |
| CC(C)C[C@H](NC(=O)[C@H](CCCNC(=N)N)NC(=O)[C@@H]1CCCN1C(=O)[C@H](CCCNC(=N)N)NC(=O)[C@H](CCC(N)=O)NC(=O)[C@H](CCCNC(=N)N)NC(=O)[C@@H](N)CCCNC(=N)N)C(=O)N[C@@H](CO)C(=O)N[C@@H](C)C(=O)N[C@@H](CCCNC(=N)N)C(=O)NCC(=O)N1CCC[C@H]1C(=O)O [Compound in Ex. 19] | 0.26 | 0.071 |
| CSCC[C@H](NC(=O)CNC(=O)CNC(=O)[C@H](CCCNC(=N)N)NC(=O)[C@H](C)NC(=O)[C@H](CO)NC(=O)[C@H](CC(C)C)NC(=O)[C@H](CCCNC(=N)N)NC(=O)[C@@H]1CCCN1C(=O)[C@@H](N)CCCNC(=N)N)C(=O)N1CCC[C@H]1C(=O)N[C@@H](Cc1ccc(Cl)cc1)C(=O)O [Compound in Ex. 54] (H-RPRLSARGGMP[Phe(4-Cl)]-OH; N-terminus and C-terminus assumed) | 0.19 | 0.29 |
| CSCC[C@H](NC(=O)[C@@H]1CCCN1C(=O)CNC(=O)[C@H](CCCCN)NC(=O)[C@H](Cc1c[nH]cn1)NC(=O)[C@H](CO)NC(=O)[C@H](CC(C)C)NC(=O)[C@H](CCCNC(=N)N)NC(=O)[C@@H]1CCCN1C(=O)[C@@H](N)CCCNC(=N)N)C(=O)N1CCC[C@H]1C(=O)N[C@@H](CC1CCCCC1)C(=O)O [Compound in Ex. 49] | 0.71 | 3.5 |
| CC(=O)NC[C@H](NC(=O)[C@H](CO)NC(=O)[C@H](CC(C)C)NC(=O)[C@H](CCCNC(=N)N)NC(=O)[C@@H]1CCCN1C(=O)[C@@H](N)CCCNC(=N)N)C(=O)N[C@@H](CCCNC(=N)N)C(=O)NCC(=O)N1CCC[C@H]1C(=O)N[C@@H](CC1CCCCC1)C(=O)N1CCC[C@H]1C(=O)N[C@@H](Cc1ccc(Cl)cc1)C(=O)O [Compound in Ex. 66, Arg-Pro-Arg-Leu-Ser-Dap(Ac)-Arg-Gly-Pro-Cha-Pro-Phe(Cl)] (H-RPRLS[Dap](Ac)RGP[Cha]P[Phe(4-Cl)]-OH) | 0.69 | 0.11 |
| CSCC[C@H](NC(=O)[C@@H]1CCCN1C(=O)CNC(=O)[C@H](CCCNC(=N)N)NC(=O)[C@H](CCCNC(=N)N)NC(=O)[C@H](Cc1ccccc1)NC(=O)[C@H](CC(C)C)NC(=O)[C@H](CCCNC(=N)N)NC(=O)[C@@H]1CCCN1C(=O)[C@H](CCCNC(=N)N)NC(=O)[C@@H]1CCC(=O)N1)C(=O)N1CCC[C@H]1C(=O)N[C@@H](Cc1ccccc1)C(=O)O [Compound in Ex. 42] ([pGlu]RPRLFRRGPMPF-OH) | 0.15 | 0.81 |
| C[C@H](NC(=O)[C@H](CCCNC(=N)N)NC(=O)[C@@H]1CCCN1C(=O)[C@@H](N)CCCNC(=N)N)C(=O)N[C@@H](CO)C(=O)N[C@@H](Cc1c[nH]cn1)C(=O)N[C@@H](CCCCN)C(=O)NCC(=O)N1CCC[C@H]1C(=O)N[C@@H](CC1CCCCC1)C(=O)N1CCC[C@H]1C(=O)N[C@@H](Cc1ccc(Cl)cc1)C(=O)O [Compound in Ex. 57] (H-RPRASHKGP[Cha]P[Phe(4-Cl)]-OH; N-terminus and C-terminus assumed) | 0.52 | 0.17 |
| RPRLFARGPMPF [Compound in Ex. 31] | 0.14 | 0.27 |
| CC(C)C[C@H](NC(=O)[C@H](CCCNC(=N)N)NC(=O)[C@@H]1CCCN1C(=O)[C@@H](N)CCCNC(=N)N)C(=O)N[C@@H](CO)C(=O)N[C@@H](CNC(=O)CCCCC(=O)O)C(=O)N[C@@H](CCCNC(=N)N)C(=O)NCC(=O)N1CCC[C@H]1C(=O)N[C@@H](CC1CCCCC1)C(=O)N1CCC[C@H]1C(=O)N[C@@H](Cc1ccc(Cl)cc1)C(=O)O [Compound in Ex. 68, Arg-Pro-Arg-Leu-Ser-Dap(Adi)-Arg-Gly-Pro-Cha-Pro-Phe(Cl)] (H-RPRLS[Dap](Adipoyl)RGP[Cha]P[Phe(4-Cl)]-OH; N-terminus and C-terminus assumed) | 0.42 | 0.13 |
| CC(C)C[C@H](NC(=O)[C@H](CCCNC(=N)N)NC(=O)[C@@H]1CCCN1C(=O)[C@H](CCCNC(=N)N)NC(=O)[C@H](CCC(N)=O)NC(=O)[C@H](CCCNC(=N)N)NC(=O)[C@@H](N)CCCNC(=N)N)C(=O)N[C@@H](CO)C(=O)N[C@@H](C)C(=O)N[C@@H](CCCNC(=N)N)C(=O)NCC(=O)NCC(=O)N[C@@H](CC1CCCCC1)C(=O)O [Compound in Ex. 62] (H-RRQRPRLSARGG[Cha]-OH; N-terminus and C-terminus assumed) | 0.23 | 0.14 |
| CC(C)C[C@H](NC(=O)[C@H](CCCNC(=N)N)NC(=O)[C@@H]1CCCN1C(=O)[C@@H](N)CCCNC(=N)N)C(=O)N[C@@H](CO)C(=O)N[C@@H](CN)C(=O)N[C@@H](CCCNC(=N)N)C(=O)NCC(=O)N1CCC[C@H]1C(=O)N[C@@H](CC1CCCCC1)C(=O)N1CCC[C@H]1C(=O)N[C@@H](Cc1ccc(Cl)cc1)C(=O)O [Compound in Ex. 65, Arg-Pro-Arg-Leu-Ser-Dap-Arg-Gly-Pro-Cha-Pro-Phe(Cl)] (H-RPRLS[Dap]RGP[Cha]P[Phe(4-Cl)]-OH) | 0.52 | 0.26 |
| RPRLSARGPM [Compound in Ex. 27] | – | 0.11 |
| RPRLFARGPMF [Compound in Ex. 47] | 0.36 | 1.8 |
| CCCCCC(=O)NC[C@H](NC(=O)[C@H](CO)NC(=O)[C@H](CC(C)C)NC(=O)[C@H](CCCNC(=N)N)NC(=O)[C@@H]1CCCN1C(=O)[C@@H](N)CCCNC(=N)N)C(=O)N[C@@H](CCCNC(=N)N)C(=O)NCC(=O)N1CCC[C@H]1C(=O)N[C@@H](CC1CCCCC1)C(=O)N1CCC[C@H]1C(=O)N[C@@H](Cc1ccc(Cl)cc1)C(=O)O [Compound in Ex. 67, Arg-Pro-Arg-Leu-Ser-Dap(C6)-Arg-Gly-Pro-Cha-Pro-Phe(Cl)] (H-RPRLS[Dap](Hexanoyl)RGP[Cha]P[Phe(4-Cl)]-OH; N-terminus and C-terminus assumed) | 1.1 | 0.45 |
| CSCC[C@H](NC(=O)[C@@H]1CCCN1C(=O)CNC(=O)[C@H](CCCCN(C)C)NC(=O)[C@H](C)NC(=O)[C@H](CO)NC(=O)[C@H](CC(C)C)NC(=O)[C@H](CCCNC(=N)N)NC(=O)[C@@H]1CCCN1C(=O)[C@@H](N)CCCNC(=N)N)C(=O)N1CCC[C@H]1C(=O)N[C@@H](Cc1ccccc1)C(=O)O [Compound in Ex. 64, Arg-Pro-Arg-Leu-Ser-Ala-Lys(Me)2-Gly-Pro-Met-Pro-Phe] (H-RPRLSA[Lys(Me2)]GPMPF-OH; N-terminus and C-terminus assumed) | 0.38 | – |
